Measurements published in patent US20230416225A1, “DIAMINOPYRIMIDINE CARBOXAMIDE INHIBITORS OF HPK1” (MERCK SHARP & DOHME LLC, priority 2020, published 2023).

Biological target: T1, Human HPK1, catalytic domain (Homo sapiens, UniProt Q92918)
T1 construct: purchased Carna
T1 sequence (Q92918 1-346): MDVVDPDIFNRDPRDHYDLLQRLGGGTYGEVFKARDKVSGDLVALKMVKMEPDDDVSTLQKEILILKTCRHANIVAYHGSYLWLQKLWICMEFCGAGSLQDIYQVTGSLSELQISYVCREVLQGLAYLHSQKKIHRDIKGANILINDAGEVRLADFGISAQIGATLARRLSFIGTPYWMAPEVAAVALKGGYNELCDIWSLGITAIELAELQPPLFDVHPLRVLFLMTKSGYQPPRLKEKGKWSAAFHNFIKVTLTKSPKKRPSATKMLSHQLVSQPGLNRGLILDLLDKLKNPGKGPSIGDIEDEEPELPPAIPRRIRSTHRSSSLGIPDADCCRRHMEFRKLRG
Experiment: HPK1-SLP76 TR-FRET assay
Assay type: biochemical
Details: 75 pM HPK1, 10 uM ATP, 10 nM SLP76, 30 min compound pre-incubation

| SMILES | IC50 |
| --- | --- |
| COc1cc2c(cc1Nc1ncc(C(N)=O)c(Nc3c(C)cc(C#N)cc3F)n1)CN(C)CC2 [Example 4-33, 4-[(4-cyano-2-fluoro-6-methylphenyl)amino]-2-[(6-methoxy-2-methyl-1,2,3,4-tetrahydroisoquinolin-7-yl)amino]pyrimidine-5-carboxamide] | 0.44 nM |
| COCCOCCOCC(=O)N1CCc2cc(OC)c(Nc3ncc(C(N)=O)c(Nc4ccccc4Br)n3)cc2C1 [Example 12-1, 4-[(2-bromophenyl)amino]-2-[(6-methoxy-2-{[2-(2-methoxyethoxy)ethoxy)accetyl}-1,2,3,4-tetrahydroisoquinolin-7-yl)amino]pyrimidine-5-carboxamide] | 117 nM |
| COc1cc2c(cc1Nc1ncc(C(N)=O)c(Nc3ccccc3C(O)(C(F)(F)F)C(F)(F)F)n1)CN(C)CC2 [Example 7-97, 4-{[2-(1,1,1,3,3,3-hexafluoro-2-hydroxypropan-2-yl)phenyl]amino}-2-[(6-methoxy-2-methyl-1,2,3,4-tetrahydroisoquinolin-7-yl)amino]pyrimidine-5-carboxamide] | 0.23 nM |
| Cn1cc(Nc2ncc(C(N)=O)c(Nc3cccc4c3CCNC4)n2)c(=O)[nH]1 [Example 7-11, 2-[(1-methyl-3-oxo-2,3-dihydro-1H-pyrazol-4-yl)amino]-4-[(1,2,3,4-tetrahydroisoquinolin-5-yl)amino]pyrimidine-5-carboxamide] | 111 nM |
| COc1cc2c(cc1Nc1ncc(C(N)=O)c(Nc3cc(C)nn3Cc3ccccc3)n1)CN(C)CC2 [Example 7-91, 4-((1-benzyl-3-methyl-1H-pyrazol-5-yl)amino)-2-((6-methoxy-2-methyl-1,2,3,4-tetrahydroisoquinolin-7-yl)amino)pyrimidine-5-carboxamide] | 38.6 nM |
| COc1cc2c(cc1Nc1ncc(C(N)=O)c(NC3CCC(C(F)(F)F)CC3)n1)CN(C)CC2 (stereo not drawn) [Example 26-16, 2-[(6-methoxy-2-methyl-1,2,3,4-tetrahydroisoquinolin-7-yl)amino]-4-{[4-(trifluoromethyl)cyclohexyl]amino}pyrimidine-5-carboxamide] | 11.9 nM |
| COc1cc2c(cc1Nc1ncc(C(N)=O)c(Nc3c4c(nn3C)CCC4)n1)CN(C)CC2 [Example 7-84, 2-((6-methoxy-2-methyl-1,2,3,4-tetrahydroisoquinolin-7-yl)amino)-4-((2-methyl-2,4,5,6-tetrahydrocyclopenta[c]pyrazol-3-yl)amino)pyrimidine-5-carboxamide] | 5.66 nM |
| COc1cc2c(cc1Nc1ncc(C(N)=O)c(Nc3c(F)cccc3C#N)n1)CN(C)CC2 [Example 4-9] | 5.65 nM |
| COc1cc2c(cc1Nc1ncc(C(N)=O)c(Nc3cccc(C#N)c3F)n1)CN(C)CC2 [Example 7-30, 4-[(3-cyano-2-fluorophenyl)amino]-2-[(6-methoxy-2-methyl-1,2,3,4-tetrahydroisoquinolin-7-yl)amino]pyrimidine-5-carboxamide] | 2.38 nM |
| COc1cc2c(cc1Nc1ncc(C(N)=O)c(Nc3cccc4c3CCNC4=O)n1)CN(C)CC2 [Example 7-27, 2-[(6-methoxy-2-methyl-1,2,3,4-tetrahydroisoquinolin-7-yl)amino]-4-[(1-oxo-1,2,3,4-tetrahydroisoquinolin-5-yl)amino]pyrimidine-5-carboxamide] | 0.13 nM |
| COc1cc2c(cc1Nc1ncc(C(N)=O)c(NCc3cccc(F)c3F)n1)CN(C)CC2 [Example 26-9, 4-{[(2,3-difluorophenyl)methyl]amino}-2-[(6-methoxy-2-methyl-1,2,3,4-tetrahydroisoquinolin-7-yl)amino]pyrimidine-5-carboxamide] | 0.95 nM |
| N#CC1(c2cccc(Nc3ncc(C(N)=O)c(Nc4cccc5c4CCNC5=O)n3)c2)CC1 [Example 25-4, 2-{[3-(1-cyanocyclopropyl)phenyl]amino}-4-[(1-oxo-1,2,3,4-tetrahydroisoquinolin-5-yl)amino]pyrimidine-5-carboxamide] | 2.78 nM |
